Where two headings read alike, the source gives them in different places.
Assays:
[1] = Rat Oral Bioavailability Assay; type: in vivo; details: plasma, 1 mg/kg, male Sprague Dawley rats, oral suspension vs intravenous, read-out: Fraction bioavailable relative to the intravenous dose (% F)
Protocol: Male Sprague Dawley rats (body weight range 250-320 g) with indwelling femoral arterial cannulae are obtained from Charles River, Wilmington, Mass. 01887, USA. Test compound is administered intravenously in solution (2 mL/kg) in: 10% N-methyl pyrollidone/18% Captisol® in 22.5 mM phosphate buffer, pH 3. The final drug concentration is 0.25 mg/mL (free base equivalents). Blood samples are obtained using the indwelling cannula over 24 h. The animals are then administered an oral dose of test compound in suspension (5 mL/kg) in 1% w/v hydroxyethylcellulose/0.25% v/v polysorbate 80/0.05% v/v antifoam in purified water. The final drug concentration is 0.2 mg/mL (free base equivalents). […]
An internal standard compound (for normalisation) in acetonitrile/methanol (1:1, v/v) is added to samples of plasma to precipitate protein and the samples are centrifuged prior to analysis. The supernatants are analysed by injection and rapid gradient elution on a Javelin Betasil C18 column (20×2.1 mm cartridge, Mobile phase A: Water/1 M ammonium bicarbonate, 2000:10 v/v, Mobile Phase B: MeOH/1 M ammonium bicarbonate, 2000:10 v/v). The eluted analytes are detected by LC-MS-MS analysis using a Sciex API 4000 triple quadrupole mass spectrometer. Concentrations of compounds in plasma are determined from standards prepared under identical conditions. […]

[2] = tested on: human glioblastoma cells (U87MG); assay: Human subcutaneous xenograft model, U87MG, athymic nude mice; type: in vivo; details: U87 MG, oral gavage daily for 21 days
Protocol: (§1) Test compound is prepared in an appropriate vehicle (1% hydroxyethyl cellulose, in 25 mM phosphate buffer pH 2) and is administered by oral gavage daily (at 25, 50 or 100 mg/kg (mpk)) for 21 days when tumours are established (11-29 days after implant). Tumour response is determined by tumour volume measurement performed twice a week during the course of treatment.
(§2) The statistical method for assessing Tumour Growth Delay (TGD-Individual interpolation method) is as follows: For each animal, the time to reach a specified tumour volume (threshold) is calculated by interpolating between the last measurement before reaching the threshold and the next measurement. The interpolation is linear using log10(volume) vs. time. If an animal never reaches the threshold, its crossing time is reported at “>T” where T is the last day measured for that animal. These crossing times are analyzed as “time-to-event” data with right-censoring using a Weibull distribution. A mean and standard deviation are determined for each treatment group. Tumour growth delay (TGD) is the difference in mean crossing time between a treated group and the vehicle control group. T-tests are performed using the means and standard deviations from the Weibull analysis. Body weight is taken as a general measurement of toxicity.

[3] = tested on: human acute myeloid leukaemia (AML) cells (MV4-11); assay: Human subcutaneous xenograft model, MV4-11, athymic nude mice; type: in vivo; details: for TGD Days (750 m3): oral gavage daily for 21 days
Protocol: as §1, §2

[4] = tested on: U87 MG human glioblastoma tumour cells; assay: Orthotopic Brain Xenograft Model, NIH-RNU rats, survival; type: in vivo
Description: Test compound is formulated in vehicle (1% w/v hydroxyethylcellulose/0.25% v/v polysorbate 80/0.05% v/v antifoam in purified water) and administered every day for 21 days at 20, 40 and 80 mpk (qdx21) and 80 mpk q2dx10 starting on day 4 after tumour implant.
The primary outcome variable is survival.

[5] = tested on: human lung cancer cells (NCI H460); assay: Human subcutaneous xenograft model, NCI H460, athymic nude mice; type: in vivo; details: oral gavage daily for 21 days
Protocol: as §1, §2

[6] = Plasma and brain exposure in non-tumour bearing male Sprague Dawley rats; type: in vivo, rat; details: male SD rats; for concentration at 2 h / concentration at 4 h / concentration at 24 h / concentration at 48 h: single oral dose 30 mg/kg
Protocol: Samples are taken over 48 h in order to determine plasma and brain concentrations. Animals are sacrificed, and whole blood collected by cardiac puncture and plasma isolated by centrifugation. Whole brain is collected and snapped frozen in liquid nitrogen. […] An internal standard compound in acetonitrile/methanol (1:1, v/v) is added to samples of plasma or brain homogenate to precipitate protein and the samples are centrifuged prior to analysis. The supernatants are analysed by injection and rapid gradient elution on a Javelin Betasil C18 column (20×2.1 mm cartridge, Mobile phase A: […] The eluted analytes are detected by LC-MS-MS analysis using a Sciex API 4000 triple quadrupole mass spectrometer. Concentrations of compounds in plasma or brain are determined from standards prepared under identical conditions. The plasma and brain concentrations are determined in this study from a group of three rats at each time point (see Tables 6a and 6b) and are used to calculate the area under the plasma concentration/time curve or the brain concentration/time curve from 0 to 48 hours. […] Maximal concentrations (Tmax) are detected at 4 h.

[7] = tested on: Human colorectal cancer cells (colo-205); assay: Human subcutaneous xenograft model, colo-205, athymic nude mice; type: in vivo; details: oral gavage daily for 21 days
Protocol: as §1, §2

Solubility Assay = type: physicochemical; details: aqueous buffer, thermodynamic from solid; pH 8 phosphate buffer, ambient temperature, at least 16 hours, target 2.0 mg/mL
Protocol: The appropriate amounts of test compound are weighed into separate chromatographic vials. […] The vials are capped securely and placed in a rotation device. The vials are rotated through 360° for at least 16 hours at ambient temperature with an angular speed of about 50 rpm. A visual examination of the individual vials is performed after rotation. 250 μL from each vial is filtered through a 0.7 μm glass filter. The sample filtrate and standard filtrate are collected into separate wells of 96 deep well plates. […] The sample and standard solutions are analysed by HPLC (LC Column: […] A—0.2% Formic Acid in Water; B—0.2% Formic Acid in acetonitrile; […] Diode array detector scan from 200 nm to 400 nm. The wavelength extracted and used for quantitation is selected to provide the most accurate estimation of the sample preparations.) Retention time used for peak assignment for the test compound is obtained from the 200 μg/mL standard preparation chromatogram. Solubility values are calculated using a four-level calibration curve. The line of best fit for peak area of calibration standards calculated by chromatographic management data system using linear or quadratic through zero fit is used. Solubility results are reported in mg/mL. Preferred exemplified compounds display a solubility of at least 2 mg/ml in pH 8 phosphate buffer using the above assay.

[8] = Sprague Dawley, rat, brain, read-out: Brain concentration (Mean)
[9] = Sprague Dawley, rat, plasma, read-out: Plasma concentration (Mean)

## CS(=O)(=O)O.Cc1nc2ccc(-c3nc(Nc4ccc(C5CCN(C(C)C)CC5)cn4)ncc3F)cc2n1C1CCCC1 [Example 22, [4-(3-Cyclopentyl-2-methyl-3H-benzoimidazol-5-yl)-5-fluoro-pyrimidin-2-yl]-(1′-isopropyl-1′,2′,3′,4′,5′,6′-hexahydro-[3,4′]bipyridinyl-6-yl)-amine methanesulfonate]
[1]
  bioavailability: 48.5%

## CCN1CCN(Cc2ccc(Nc3ncc(F)c(-c4cc(F)c5nc(C)n(C(C)C)c5c4)n3)nc2)CC1.CS(=O)(=O)O [Example 16, [5-(4-Ethyl-piperazin-1-ylmethyl)-pyridin-2-yl]-[5-fluoro-4-(7-fluoro-3-isopropyl-2-methyl-3H-benzoimidazol-5-yl)-pyrimidin-2-yl]-amine methanesulfonate]
[2]; 25 mpk
  TGD Days (750 m3): 6.1 days
[2]; 50 mpk
  TGD Days (750 m3): 10.0 days
[2]; 100 mpk
  TGD Days (750 m3): 21.4 days
[3]; AML MV4-11 xenografts, 100 mg per Kg (mpk)
  tumour response: tumour regression is observed
[3]; MV4-11, 25 mpk
  TGD Days (750 m3): 10.4 days
[3]; MV4-11, 50 mpk
  TGD Days (750 m3): 11.5 days
[3]; MV4-11, 100 mpk, PO, qdx21, day 28
  Tumor volume (mg) at start of dosing period (day 28): 225.94 mg
[3]; MV4-11, 100 mpk, PO, qdx21, day 49
  Tumor volume (mg) at end of dosing period (day 49): 116.68 mg
[3]; MV4-11, 100 mpk
  TGD Days (750 m3): 28.8 days
[4]; 40 mpk qd, 80 mpk qd and 80 mpk q2d
  median survival compared to vehicle treated animals: statistically significant increase in median survival
[4]; PO 20 mg/kg qd
  Mean Survival: 29.8 days
  Median Survival: 31 days
[4]; PO 40 mg/kg qd
  Mean Survival: 34.3 days
  Median Survival: 37 days
[4]; PO 80 mg/kg q2d
  Mean Survival: 33.0 days
  Median Survival: 34 days
[4]; PO 80 mg/kg qd
  Mean Survival: 36.9 days
  Median Survival: 37 days
[5]; H460, 25 mpk
  TGD Days (750 m3): 1.5 days
[5]; H460, 50 mpk
  TGD Days (750 m3): 4.0 days
[5]; H460, 100 mpk
  TGD Days (750 m3): 6.7 days
[6]; [8]
  concentration at 2 h: 758 ng/g
  concentration at 4 h: 1500 ng/g
  concentration at 24 h: 992 ng/g
  concentration at 48 h: 718 ng/g
[6]; Sprague Dawley, rat, plasma, 30 mg/kg oral
  Cmax: 1500 ng/mL
[6]; [9]
  concentration at 2 h: 1010 ng/mL
  concentration at 4 h: 1500 ng/mL
  concentration at 24 h: 1020 ng/mL
  concentration at 48 h: 972 ng/mL
[6]; Sprague Dawley, rat, 30 mg/kg oral, plasma and brain, read-out: Maximal concentrations (Tmax)
  Tmax: 4 h
[6]; 30 mg/kg oral
  Cmax Brain: 1500 ng/g
  Tmax Brain: 4.00 h
  Tmax Plasma: 4.00 h
  blood-brain barrier penetration: able to cross the blood-brain barrier and distributes well into the brain
[6]; 30 mg/kg oral, 0-48 Hours
  AUC Brain: 47900 ng·h/g
  AUC Plasma: 52300 ng·h/mL
[6]; male, Sprague Dawley, rat, brain/plasma, po, 30 mg/kg, 30 mg/kg oral, 0-48 Hours, read-out: AUC Brain/Plasma Ratio
  Kp: 0.92
[6]; male, Sprague Dawley, rat, brain/plasma, po, 30 mg/kg, 30 mg/kg oral, by AUC or Cmax, read-out: brain/plasma ratio
  Kp: ~1
[6]; male, Sprague Dawley, rat, brain/plasma, po, 30 mg/kg, 30 mg/kg oral, read-out: Cmax Brain/Plasma Ratio
  Kp at 4 h: 1
[7]; colo-205, 25 mpk
  TGD Days (750 m3): 15.3 days
[7]; colo-205, 50 mpk
  TGD Days (750 m3): 17.4 days
[7]; colo-205, 100 mpk
  TGD Days (750 m3): 39.9 days
Solubility Assay
  solubility: 2100 µg/mL

— patent US7855211B2, “Protein kinase inhibitors” (Eli Lilly and Company, priority 2008, dated 2010)
